Measured values reported in patent publication US20260199289A1, “USE OF GLYCOGEN METABOLISM INHIBITORS FOR THE TREATMENT OF CANCER” (THE UNIVERSITY OF VERMONT AND STATE AGRICULTURAL COLLEGE, priority 2022, published 2026).
Entries after “also recorded” stand apart in the source; their conditions may differ. Where two headings read alike, the source gives them in different places.

What was measured:
8505C cells [1] = assay: SRB cell viability assay in ATC cells; assay type: cell-based, human
Experimental: In Vitro Cell Staining for Measuring Drug Efficacy—Thyroid cells (4.0×10^3) were seeded in 96 well plates with 100 μl CTM and allowed to adhere overnight. 100 μl of CTM containing 2× concentration of compound was overlayed in each well for 48 hours unless otherwise indicated. Each well then received 100 μl of 10% w/v cold trichloroacetic acid (Fisher) and incubated at 4° C. for 1 hour to fix the cells. Each well was rinsed 3× with DI H2O and stained with 100 μl 0.057% w/v sulforhodamine B (SRB, Sigma-Aldrich) for 30 minutes at room temperature in the dark. Wells were washed 4× with 300 μl 1% v/v acetic acid (Fisher), and remaining SRB stain was solubilized with 200 μl of 10 mM Tris buffer, pH 10.5 (Fisher). Absorbance was measured at 564 nm with a Synergy 2 Multi-Detection Microplate Reader (Agilent Technologies) and normalized to a vehicle control. Drug synergy was evaluated using the coefficient of drug interaction (CDI) formula: CDI=AB/(A×B)×100, where AB is the percent remaining cells of an indicated combination treatment, A is the average percent remaining cells of agent 1 alone, and B is the average percent remaining cells of agent 2 alone. […] Hao et al., “Effect of Lumiracoxib on Proliferation and Apoptosis of Human Nonsmall Cell Lung Cancer Cells In vitro,” Chin Med J (Engl) 121:602-607 (2008), which is hereby incorporated by reference in its entirety. […]

8505C cells [2] = assay: Quantification of G1P, G6P, lactate, ATP, glucose, NADPH and glutathione; assay type: cell-based, human; conditions: 50 μM CP-91,149, 24 hours
Experimental: (§1) Quantification of Levels of Glycogen, Glucose-1-Phosphate, Glucose-6-Phosphate, Lactate, ATP, Glucose, NADPH, and Glutathione—Briefly, cells were seeded in 10 cm dishes (for measuring glycogen and NADPH), 6 well plates (GIP, G6P, lactate, glucose, and glutathione), or 96 well plates (ATP) and allowed to adhere overnight. CTM was aspirated and cells were rinsed with PBS before application of compounds dissolved in CTM for 24 hours, at which point cells were ~90% confluent. CTM was then aspirated, cells were rinsed with PBS, and lysed according to the respective manufacturer protocol (see Table 4) for metabolite analysis.

8505C cells [3] = assay: Metabolic flux analysis (Seahorse ECAR and OCR); assay type: cell-based, human; conditions: for extracellular acidification rate (ECAR): 8505C cells; for oxygen consumption rate (OCR): 50 μM CP-91,149, 24 hours
Experimental: Metabolic Flux Analysis—Thyroid cells (5.0×10^4) were plated in a 96 well Seahorse culture plate with compounds of interest diluted in 200 μl CTM for 24 hours. Cells were washed with PBS and equilibrated for 1 hour at 37° C. in a non-CO2 incubator with compounds of interest diluted in Seahorse RPMI (supplemented with 11.1 mM glucose, 2 mM glutamine, and 5% serum) before analysis of OCR and ECAR in a Metabolic Flux Analyzer (Seahorse Bioscience, North Billerica, MA 96XP).

Nthy-ori-3-1 cells [4] = assay: Immunoblot of apoptosis markers and Ki-67 in normal thyroid cells; assay type: cell-based, human
Experimental: Briefly, proteins were isolated from whole cells in lysis buffer (20 mM Tris-HCl (pH 8), 137 mM NaCl, 10% glycerol, 1% Triton X-100, and 2 mM EDTA), quantified via Pierce™ BCA Protein Assay Kit (Thermo Fisher Scientific), and 25 μg protein/sample were resolved by polyacrylamide gel electrophoresis and immobilized onto nitrocellulose membranes. Membranes were blocked with 5% w/v BSA in TBS and 0.1% v/v Tween20 (Gold Bio, St Louis, MO, USA) for one hour at room temperature and incubated with primary antibodies overnight. Membranes were washed with TBS-0.1% Tween20 and secondary antibodies were applied for 1 hour at room temperature in 5% w/v BSA in TBS and 0.1% v/v Tween20. Immunoreactive proteins were detected by enhanced chemiluminescence (Thermo Scientific) on a ChemiDoc XRS+ (Bio-Rad Laboratories). Densitometry analysis was performed using ImageJ.

8505C cells [5] = assay: Reactive oxygen species quantification (H2DCFDA); assay type: cell-based, human; conditions: for reactive oxygen species (ROS) levels: 8505C ATC cells
Experimental: Quantification of Reactive Oxygen Species—Thyroid cells (1.0-2.0×10^4) were seeded in a black 96 well plate in 200 μl CTM and allowed to adhere overnight. Wells were washed with PBS and incubated with or without 25 μM H2DCFDA for 45 minutes at 37° C. in a non-CO2 incubator with compounds of interest diluted in phenol-red free RPMI (supplemented with 2 mM glutamine and 10% charcoal-stripped serum). Wells were washed with PBS and received compounds of interest diluted in phenol-red free, supplemented RPMI and incubated at 37° C. in a SpectraMax M4 Microplate Reader (Molecular Devices) to record fluorescent measurements (Ex/Em=485/535 nm) every 15 minutes overnight. Maximum fluorescence intensity was determined (~6 hours), background signal (—H2DCFDA) was subtracted from each group, and corrected values were normalized to the vehicle control.

PYG isoforms = conditions: cited from earlier work
HepG2 cells = conditions: hepatocellular carcinoma; cited from earlier work
Nthy-ori-3-1 cells [6] = assay: Glycogen content (colorimetric assay, TEM) in normal thyroid cells; assay type: cell-based, human; conditions: Nthy-ori-3-1 normal thyroid cells, CP-91,149 50 μM, 24-hour incubation
Experimental: Transmission Electron Microscopy of Glycogen Deposits—Cells were seeded in 10 cm dishes and allowed to adhere overnight. […] Cells were then rinsed with PBS and lifted with trypsin for preparation for TEM as described previously. Thwe et al., “Cell-intrinsic Glycogen Metabolism Supports Early Glycolytic Reprogramming Required for Dendritic Cell Immune Responses,” Cell Metabolism 26:558-567.e555 (2017), which is hereby incorporated by reference in its entirety.
as §1

CN(C)C(=O)[C@H](O)[C@H](Cc1ccccc1)NC(=O)c1cc2cc(Cl)ccc2[nH]1 [CP-91,149, 5-chloro-N-[(2S,3R)-4-(dimethylamino)-3-hydroxy-4-oxo-1-phenylbutan-2-yl]-1H-indole-2-carboxamide]
cell viability with excess (2 mM) pyruvate (8505C cells [1]; 8505C cells, 48 hours): nearly identical to the pyruvate-depleted group
cell viability with excess (25 mM) glucose (8505C cells [1]; 8505C cells, 48 hours): rescued cell viability
cell viability with pyruvate depletion (8505C cells [1]; 8505C cells, 48 hours): able to compensate for loss of pyruvate
total cell viability (8505C cells [1]; ATC cells, 48 hours at 50 μM): modestly but significantly reduced total cell viability
cell viability, concentration and time dependence (SRB assay) (8505C cells [1]; various concentrations and time points): concentration-dependent decrease in cell viability; also recorded: decreases 8505C cell viability in a time-dependent manner
NADPH level (8505C cells [2]; 8505C cells): decreased NADPH levels; also recorded: decreases the available supply of NADPH
extracellular glucose / glucose uptake from the cell culture media (8505C cells [2]; 8505C cells): causes an increase in glucose uptake from the cell culture media
glucose-1-phosphate (G1P) level (8505C cells [2]; 8505C cells): causes a buildup in glucose-1-phosphate
glucose-6-phosphate (G6P) level (8505C cells [2]; 8505C cells): a reduction in glucose-6-phosphate
lactate production (8505C cells [2]; 8505C cells): enhances
reduced glutathione (GSH) (8505C cells [2]; 8505C cells): decreases the relative amount of reduced glutathione (GSH)
NADPH level (8505C cells [2]; 8505C cells, listed as CP): drastic decrease in NADPH
extracellular glucose / glucose uptake from the cell culture media (8505C cells [2]; 8505C cells, listed as CP): significant reduction in extracellular glucose
glucose-1-phosphate (G1P) level (8505C cells [2]; 8505C cells, listed as CP): a buildup of the glycogen monomer, glucose-1-phosphate (G1P)
glucose-6-phosphate (G6P) level (8505C cells [2]; 8505C cells, listed as CP): a decrease in the glycolytic intermediate, glucose-6-phosphate (G6P)
reduced glutathione (GSH) (8505C cells [2]; 8505C cells, listed as CP): concomitant loss in reduced glutathione (GSH)
ATP levels (8505C cells [2]; ATC cells): decreases the levels of ATP
extracellular acidification rate (ECAR) (8505C cells [3]): enhances extracellular acidification rate
extracellular acidification rate (ECAR) (8505C cells [3]; listed as CP): modestly but significantly enhanced ECAR
increase of OCR to compensate for inhibition of glycolysis with 2-DG (8505C cells [3]; ATC cells, CP-treated versus vehicle-treated): unable to increase their oxidative phosphorylation
oxygen consumption rate (OCR) (8505C cells [3]; ATC cells): decreases the basal oxygen consumption rate
oxygen consumption rate (OCR) (8505C cells [3]; ATC cells, listed as CP): significantly limited the OCR
apoptosis (PARP and caspase cleavage) (Nthy-ori-3-1 cells [4]): but not normal thyroid cells
apoptosis (PARP and caspase cleavage) (Nthy-ori-3-1 cells [4]; listed as CP): did not significantly induce apoptosis
proliferation (Ki-67 levels) (Nthy-ori-3-1 cells [4]; listed as CP): not affected
reactive oxygen species (ROS) levels (8505C cells [5]): induced reactive oxygen species accumulation; also recorded: enhances the relative levels of reactive oxygen species
reactive oxygen species (ROS) levels (8505C cells [5]; listed as CP): three-fold increase; also recorded: higher in cells treated with CP compared to 2-DG
ROS levels with excess glucose (8505C cells [5]; 8505C cells): excess glucose reduced ROS levels only in CP-treated cells
inhibition of PYG isoforms (PYG isoforms): inhibits all PYG isoforms
ROS levels (HepG2 cells): increased ROS levels
autophagic adaptations (HepG2 cells): triggered autophagic adaptations
intrinsic apoptosis (HepG2 cells): induce intrinsic apoptosis
glycogen content (Nthy-ori-3-1 cells [6]): increased glycogen content
glycogen content (Nthy-ori-3-1 cells [6]; listed as CP): significantly increased glycogen content
